{"source": "paper PMC12445744", "about": "“Molecular docking to homology models of human and Trypanosoma brucei ERK8 that identified ortholog-specific inhibitors” (PLOS Neglected Tropical Diseases, 2025)", "target": "T1, HsERK8 (Homo sapiens, UniProt Q8TD08)", "T1 construct": "plasmid pGEX2T expressing the full-length hERK8 coding region; made in house; host or cells: Escherichia coli Rosetta 2 (DE3)", "T1 sequence (Q8TD08 1-544)": "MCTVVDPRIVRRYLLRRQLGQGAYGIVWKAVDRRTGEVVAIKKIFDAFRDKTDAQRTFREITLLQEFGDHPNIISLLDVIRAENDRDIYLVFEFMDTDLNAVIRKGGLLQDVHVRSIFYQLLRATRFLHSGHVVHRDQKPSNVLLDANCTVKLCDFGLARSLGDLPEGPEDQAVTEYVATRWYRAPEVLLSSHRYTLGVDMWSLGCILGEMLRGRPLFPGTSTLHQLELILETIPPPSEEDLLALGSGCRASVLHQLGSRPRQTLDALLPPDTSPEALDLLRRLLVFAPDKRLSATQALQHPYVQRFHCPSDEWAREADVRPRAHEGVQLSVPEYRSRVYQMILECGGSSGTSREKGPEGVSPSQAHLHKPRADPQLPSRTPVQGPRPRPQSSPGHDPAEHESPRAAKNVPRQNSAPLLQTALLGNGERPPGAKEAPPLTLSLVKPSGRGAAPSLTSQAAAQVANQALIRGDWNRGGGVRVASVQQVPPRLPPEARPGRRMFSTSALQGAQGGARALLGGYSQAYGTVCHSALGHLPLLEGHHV", "test": "Luciferase-based kinase inhibition assay (ATP luminescence), GST-tagged HsERK8 with MBP substrate", "type": "biochemical", "conditions": "for raw luminescence, HsERK8: replicate wells; for raw luminescence, HsERK8 / Luminescence Raw (Kinase-Glo): listed as Sil; for Luminescence Raw (Kinase-Glo): HsERK8", "note": "“And” between values parts separate entries of the source, which are not always exact repeats. Identical values can stand only once.", "data": [{"smiles": "CCCc1nn(C)c2c(=O)[nH]c(-c3cc(S(=O)(=O)N4CCN(C)CC4)ccc3OCC)nc12", "note": "[Sildenafil]", "values": [{"measurement": "raw luminescence, HsERK8", "setting": "0.00015 mM compound, sheet ADP_ATP_glo081724 (3)", "result": "2773.07 RLU and 2877.12 RLU and 2182.72 RLU"}, {"measurement": "raw luminescence, HsERK8", "setting": "0.00015 mM compound, sheet Kinase_glo 08142024 (2)", "result": "6784.32 RLU and 6634.26 RLU and 5826.91 RLU"}, {"measurement": "raw luminescence, HsERK8", "setting": "0.00015 mM compound, sheet Kinase_glo_080924_IFPS (2)", "result": "3800.03 RLU and 4341.28 RLU and 3728.16 RLU"}, {"measurement": "raw luminescence, HsERK8", "setting": "0.00061 mM compound, sheet ADP_ATP_glo081724 (3)", "result": "3277.47 RLU and 3338.54 RLU and 3085.21 RLU"}, {"measurement": "raw luminescence, HsERK8", "setting": "0.00061 mM compound, sheet Kinase_glo 08142024 (2)", "result": "5721.23 RLU and 5653.6 RLU and 3903.63 RLU"}, {"measurement": "raw luminescence, HsERK8", "setting": "0.00061 mM compound, sheet Kinase_glo_080924_IFPS (2)", "result": "1396.94 RLU and 1477.79 RLU and 1381.21 RLU"}, {"measurement": "raw luminescence, HsERK8", "setting": "0.00244 mM compound, sheet ADP_ATP_glo081724 (3)", "result": "3469.73 RLU and 3284.26 RLU and 2883.9 RLU"}, {"measurement": "raw luminescence, HsERK8", "setting": "0.00244 mM compound, sheet Kinase_glo 08142024 (2)", "result": "7264.08 RLU and 7348.62 RLU and 5611.33 RLU"}, {"measurement": "raw luminescence, HsERK8", "setting": "0.00244 mM compound, sheet Kinase_glo_080924_IFPS (2)", "result": "3130.75 RLU and 3411.49 RLU and 2899.43 RLU"}, {"measurement": "raw luminescence, HsERK8", "setting": "0.00977 mM compound, sheet ADP_ATP_glo081724 (3)", "result": "2892.95 RLU and 2795.69 RLU and 2354.62 RLU"}, {"measurement": "raw luminescence, HsERK8", "setting": "0.00977 mM compound, sheet Kinase_glo 08142024 (2)", "result": "7046.4 RLU and 7135.16 RLU and 5429.57 RLU"}, {"measurement": "raw luminescence, HsERK8", "setting": "0.00977 mM compound, sheet Kinase_glo_080924_IFPS (2)", "result": "3247.54 RLU and 3584.42 RLU and 3180.16 RLU"}, {"measurement": "raw luminescence, HsERK8", "setting": "0.03906 mM compound, sheet ADP_ATP_glo081724 (3)", "result": "3397.35 RLU and 3566.99 RLU and 3141.76 RLU"}, {"measurement": "raw luminescence, HsERK8", "setting": "0.03906 mM compound, sheet Kinase_glo 08142024 (2)", "result": "6515.91 RLU and 6714.58 RLU and 5167.5 RLU"}, {"measurement": "raw luminescence, HsERK8", "setting": "0.03906 mM compound, sheet Kinase_glo_080924_IFPS (2)", "result": "3400.26 RLU and 3463.14 RLU and 3305.93 RLU"}, {"measurement": "IC50", "setting": "50 μM ATP, 30 min 30°C, triplicate, n/d = no detectible inhibition, read-out: HsERK8 IC50", "result": 8, "unit": "mM"}, {"measurement": "raw luminescence, HsERK8", "setting": "0.15625 mM compound, sheet ADP_ATP_glo081724 (3)", "result": "3281.99 RLU and 3150.8 RLU and 2531.05 RLU"}, {"measurement": "raw luminescence, HsERK8", "setting": "0.15625 mM compound, sheet Kinase_glo 08142024 (2)", "result": "6655.4 RLU and 6579.31 RLU and 5562.72 RLU"}, {"measurement": "raw luminescence, HsERK8", "setting": "0.15625 mM compound, sheet Kinase_glo_080924_IFPS (2)", "result": "3817.99 RLU and 4080.76 RLU and 3636.08 RLU"}, {"measurement": "raw luminescence, HsERK8", "setting": "0.62500 mM compound, sheet ADP_ATP_glo081724 (3)", "result": "3474.25 RLU and 3356.64 RLU and 2585.33 RLU"}, {"measurement": "raw luminescence, HsERK8", "setting": "0.62500 mM compound, sheet Kinase_glo 08142024 (2)", "result": "8487.8 RLU and 8306.04 RLU and 6687.1 RLU"}, {"measurement": "raw luminescence, HsERK8", "setting": "0.62500 mM compound, sheet Kinase_glo_080924_IFPS (2)", "result": "5547.32 RLU and 5693.3 RLU and 4916.23 RLU"}, {"measurement": "raw luminescence, HsERK8", "setting": "2.50000 mM compound, sheet ADP_ATP_glo081724 (3)", "result": "11748.2 RLU and 11610.3 RLU and 8563.49 RLU"}, {"measurement": "raw luminescence, HsERK8", "setting": "2.50000 mM compound, sheet Kinase_glo 08142024 (2)", "result": "29728.4 RLU and 30364.6 RLU and 22572.1 RLU"}, {"measurement": "raw luminescence, HsERK8", "setting": "2.50000 mM compound, sheet Kinase_glo_080924_IFPS (2)", "result": "13814.9 RLU and 12641.6 RLU and 13534.9 RLU"}, {"measurement": "raw luminescence, HsERK8", "setting": "10.00000 mM compound, sheet ADP_ATP_glo081724 (3)", "result": "18796.3 RLU and 18852.8 RLU and 18760.1 RLU"}, {"measurement": "raw luminescence, HsERK8", "setting": "10.00000 mM compound, sheet Kinase_glo 08142024 (2)", "result": "37233.5 RLU and 36922.8 RLU and 36986.2 RLU"}, {"measurement": "raw luminescence, HsERK8", "setting": "10.00000 mM compound, sheet Kinase_glo_080924_IFPS (2), signal = ATP left", "result": "19808.3 RLU and 19442.1 RLU and 19894.1 RLU"}, {"measurement": "Luminescence Raw (Kinase-Glo)", "setting": "inhibitor 0.00976562 mM, sheet Sil_Pred3, read 3", "result": "76824 and 76849.7 and 75718.2"}, {"measurement": "Luminescence Raw (Kinase-Glo)", "setting": "inhibitor 0.0195312 mM, sheet Sil_Pred3, read 3", "result": "84913.3 and 83327.3 and 84201.1"}, {"measurement": "Luminescence Raw (Kinase-Glo)", "setting": "inhibitor 0.0390625 mM, sheet Sil_Pred3, read 3", "result": "86810.9 and 87656.6 and 88003.3"}, {"measurement": "Luminescence Raw (Kinase-Glo)", "setting": "inhibitor 0.078125 mM, sheet Sil_Pred3, read 3", "result": "83688.1 and 81764.7 and 82605.8"}, {"measurement": "Luminescence Raw (Kinase-Glo)", "setting": "inhibitor 0.15625 mM, sheet Sil_Pred3, read 3", "result": "84571.3 and 87872.1 and 86433.7"}, {"measurement": "Luminescence Raw (Kinase-Glo)", "setting": "inhibitor 0.3125 mM, sheet Sil_Pred3, read 3", "result": "80438.8 and 81286.8 and 83022.8"}, {"measurement": "Luminescence Raw (Kinase-Glo)", "setting": "inhibitor 0.625 mM, sheet Sil_Pred3, read 3", "result": "81408.6 and 81148.6 and 80450.5"}, {"measurement": "Luminescence Raw (Kinase-Glo)", "setting": "inhibitor 0.00976562, sheet Sil_Pred1, read 1", "result": "87353.2 and 86988.7 and 86809.9"}, {"measurement": "Luminescence Raw (Kinase-Glo)", "setting": "inhibitor 0.00976562, sheet Sil_Pred2, read 2", "result": "79598.9 and 79331.5 and 78826.8"}, {"measurement": "Luminescence Raw (Kinase-Glo)", "setting": "inhibitor 0.0195312, sheet Sil_Pred1, read 1", "result": "97908.4 and 96150.4 and 96258.1"}, {"measurement": "Luminescence Raw (Kinase-Glo)", "setting": "inhibitor 0.0195312, sheet Sil_Pred2, read 2", "result": "87627.4 and 86394.8 and 87122.7"}, {"measurement": "Luminescence Raw (Kinase-Glo)", "setting": "inhibitor 0.0390625, sheet Sil_Pred1, read 1", "result": "100125 and 101023 and 101243"}, {"measurement": "Luminescence Raw (Kinase-Glo)", "setting": "inhibitor 0.0390625, sheet Sil_Pred2, read 2", "result": "89720.6 and 90218.3 and 91030"}, {"measurement": "Luminescence Raw (Kinase-Glo)", "setting": "inhibitor 0.078125, sheet Sil_Pred1, read 1", "result": "96870.1 and 94163.1 and 94380.9"}, {"measurement": "Luminescence Raw (Kinase-Glo)", "setting": "inhibitor 0.078125, sheet Sil_Pred2, read 2", "result": "86171.5 and 85045.8 and 85399.3"}, {"measurement": "Luminescence Raw (Kinase-Glo)", "setting": "inhibitor 0.15625, sheet Sil_Pred1, read 1", "result": "97571.5 and 101844 and 101823"}, {"measurement": "Luminescence Raw (Kinase-Glo)", "setting": "inhibitor 0.15625, sheet Sil_Pred2, read 2", "result": "87601.8 and 91464.9 and 91334.7"}, {"measurement": "Luminescence Raw (Kinase-Glo)", "setting": "inhibitor 0.3125, sheet Sil_Pred1, read 1", "result": "91875.5 and 94802.6 and 96700.5"}, {"measurement": "Luminescence Raw (Kinase-Glo)", "setting": "inhibitor 0.3125, sheet Sil_Pred2, read 2", "result": "83203.8 and 85106.3 and 85450.5"}, {"measurement": "Luminescence Raw (Kinase-Glo)", "setting": "inhibitor 0.625 (mM per sheet Pred3), sheet Kinase-Glo802124_Sil_Pred1, read 1, triplicate wells", "result": "95077.7 and 94021 and 92790.1"}, {"measurement": "Luminescence Raw (Kinase-Glo)", "setting": "inhibitor 0.625, sheet Sil_Pred2, read 2", "result": "85048.1 and 84027.1 and 84180.6"}]}]}
